Test results taken from US20220187282A1, “CARDIOMYOCYTE PROLIFERATION” (The Council of the Queensland Institute of Medical Research, priority 2019, published 2022).

How the values were obtained:
mature hCO = assay: single organoid quantitative proteomics of mature hCO; type: cell-based, human; settings: for cell cycle programs regulated at the protein level: mature hCO, 2 days
Description: Single hCO were washed 2× in PBS and snap frozen and stored at −80° C. Tissues were lysed in by tip-probe sonication in 1% SDS containing 100 mM Tris pH 8.0, 10 mM tris(2-carboxyethyl)phosphine, 40 mM 2-chloroacetamide and heated to 95° C. for 5 min. Proteins were purified using a modified Single-Pot Solid-Phase-enhanced Sample Preparation (SP3) strategy (Hughes et al., 2014). Briefly, Proteins were bound to Sera-Mag carboxylate coated paramagnetic beads in 50% acetonitrile containing 0.8% formic acid (v/v) (ThermoFisher Scientific). The beads were washed twice with 70% ethanol (v/v) and once with 100% acetonitrile. Proteins were digested on the beads in 100 mM Tris pH 7.5 containing 10% 2,2,2-Trifluoroethanol overnight at 37° C. with 200 ng of sequencing grade LysC (Wako Chemicals) and trypsin (Sigma). Beads were removed and peptides acidified to 1% trifluoroacetic acid prior to purification by styrene divinyl benzene-reversed phase sulfonated solid phase extraction microcolumns. Peptides were spiked with iRT peptides (Biognosys) and analysed on an Easy-nLC1200 coupled to a Q-Exactive HF in positive polarity mode. Peptides were separated using an in-house packed 75 μm×50 cm pulled column (1.9 μm particle size, C18AQ; Dr Maisch) with a gradient of 2-35% acetonitrile containing 0.1% FA over 120 min at 300 nL/min at 60° C. The instrument was operated in data-independent acquisition (DIA) mode essentially as described previously (Bruderer et al., 2017). Briefly, an MS1 scan was acquired from 350-1650 m/z (120,000 resolution, 3e6 AGC, 50 ms injection time) followed by 20 MS/MS variable sized isolation windows with HCD (30,000 resolution, 3e6 AGC, 27 NCE). A spectral library was created by fractionating a pooled mix of peptides from 10 separate hCO on an inhouse packed 320 μm×25 cm column (3 μm particle size, BEH; Waters) with a gradient of 2-40% acetonitrile containing 10 mM ammonium formate over 60 min at 6 μL/min using an Agilent 1260 HPLC. A total of 12 concatenated fractions were analysed using the identical LC-MS/MS conditions above except the instrument was operated in data-dependent acquisition (DDA) mode. Briefly, an MS1 scan was acquired from 350-1650 m/z (60,000 resolution, 3e6 AGC, 50 ms injection time) followed by 20 MS/MS with HCD (1.4 m/z isolation, 15,000 resolution, 1e5 AGC, 27 NCE). DDA data were processed with Andromeda in MaxQuant v1.5.8.3 (Cox and Mann, 2008) against the human UniProt database (January 2016) using all default settings with peptide spectral matches and protein false discovery rate (FDR) set to 1%. DIA data were processed with Spectronaut v11 (Bruderer et al., 2015) using all default settings with precursor and protein FDR set to 1% and quantification performed at MS2.
Proteomic data were Log 2 transformed and median normalised. Removal of unwanted variation method (RUV) was applied to remove any batch effects (Gagnon-Bartsch et al., 2013). Differential abundance was determined with two sample t-tests with FDR-based multiple hypothesis testing correction. GO analysis was performed with DAVID v6.8 and gene ontology terms from BP_FAT (Huang da et al., 2009) and heat-maps and hierarchical clustering was performed using GENE-E (Broad Institute).
In order to determine the biological processes driving the pro-proliferative effects of our hit compounds, we performed RNA-sequencing (RNA-seq) and single organoid quantitative proteomics (FIG. 4A). These analyses were performed on hCOs treated with compounds 3, 63 and 65 at concentrations of 3 μM, 0.3 μM and 1 μM, respectively. RNA-seq for hCO treated with compounds 3 and 65 clustered distinctly in principal component analysis (FIG. 4B) and regulated a total of 239 and 207 genes (FIG. 9A), respectively.

kinases [1] = target: kinases (Homo sapiens, UniProt Q8IY84); type: biochemical; settings: NIM1K FRET-Z-Lyte SP; Test Conc(μM):ATP Conc(μM) 1:10
kinases [2] = target: kinases (Homo sapiens, UniProt Q13554); type: biochemical; settings: CAMK2B FRET-Z-Lyte SP; Test Conc(μM):ATP Conc(μM) 1:75
kinases [3] = target: kinases (Homo sapiens, UniProt O60285); type: biochemical; settings: NUAK1 (ARK5) FRET-Adapta SP; Test Conc(μM):ATP Conc(μM) 1:25
kinases [4] = target: kinases (Homo sapiens, UniProt O00418); type: biochemical; settings: EEF2K FRET-Z-Lyte SP; Test Conc(μM):ATP Conc(μM) 1:10
mature hCOs = assay: mature hCO, force of contraction; type: cell-based, human; settings: 2 days, compound 3 at 3 μM, 63 at 0.3 μM, 65 at 1 μM
Description: hCOs were cultured in CTRL medium for formation for 5 days and then either kept in CTRL medium culture or changed to maturation medium (Mills et al., 2017a) comprising DMEM without glucose, glutamine and phenol red (ThermoFisher Scientific) supplemented with 4% […](without insulin) (ThermoFisher Scientific), 1% GlutaMAX (ThermoFisher Scientific), 200 μM L-ascorbic acid 2-phosphate sesquimagnesium salt hydrate and 1% Penicillin/Streptomycin (ThermoFisher Scientific), 1 mmol/L glucose and 100 μmon palmitic acid (conjugated to bovine serum albumin within B27 by incubating for 2h at 37° C., Sigma) with changes every 2-3 days.
The pole deflection was used to approximate the force of contraction as per (Mills et al., 2017a). A Leica DMi8 inverted high content Imager was used to capture a 10 s time-lapse of each hCO contracting in real time at 37° C. […]
Hits were next validated in mature hCOs using a targeted concentration range based on their active concentrations in the initial immature hCO screen (FIG. 3A). Proliferation markers were quantified using high magnification confocal imaging as we found flow cytometry to be inaccurate in hCO (data not shown). […]

Chain of kinases (Homo sapiens, UniProt O60285) (O60285 whole entry): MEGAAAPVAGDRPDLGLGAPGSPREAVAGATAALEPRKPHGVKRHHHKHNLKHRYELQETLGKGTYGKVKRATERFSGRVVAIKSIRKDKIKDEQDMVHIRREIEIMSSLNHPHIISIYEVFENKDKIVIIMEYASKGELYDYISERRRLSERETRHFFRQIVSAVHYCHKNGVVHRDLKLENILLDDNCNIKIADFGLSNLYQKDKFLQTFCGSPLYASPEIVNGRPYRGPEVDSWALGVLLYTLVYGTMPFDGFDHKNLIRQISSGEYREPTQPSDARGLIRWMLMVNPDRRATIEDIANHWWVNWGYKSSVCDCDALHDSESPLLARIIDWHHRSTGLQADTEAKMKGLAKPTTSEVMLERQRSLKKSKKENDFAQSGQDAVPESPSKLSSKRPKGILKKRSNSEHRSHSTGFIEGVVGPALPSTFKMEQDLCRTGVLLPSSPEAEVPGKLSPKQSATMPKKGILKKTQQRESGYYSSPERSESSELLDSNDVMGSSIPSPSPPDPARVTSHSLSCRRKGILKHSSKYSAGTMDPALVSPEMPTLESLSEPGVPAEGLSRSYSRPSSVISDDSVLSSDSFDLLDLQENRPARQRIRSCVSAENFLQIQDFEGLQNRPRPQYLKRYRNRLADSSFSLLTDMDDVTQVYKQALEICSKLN
Chain of kinases (Homo sapiens, UniProt Q13554) (Q13554 whole entry): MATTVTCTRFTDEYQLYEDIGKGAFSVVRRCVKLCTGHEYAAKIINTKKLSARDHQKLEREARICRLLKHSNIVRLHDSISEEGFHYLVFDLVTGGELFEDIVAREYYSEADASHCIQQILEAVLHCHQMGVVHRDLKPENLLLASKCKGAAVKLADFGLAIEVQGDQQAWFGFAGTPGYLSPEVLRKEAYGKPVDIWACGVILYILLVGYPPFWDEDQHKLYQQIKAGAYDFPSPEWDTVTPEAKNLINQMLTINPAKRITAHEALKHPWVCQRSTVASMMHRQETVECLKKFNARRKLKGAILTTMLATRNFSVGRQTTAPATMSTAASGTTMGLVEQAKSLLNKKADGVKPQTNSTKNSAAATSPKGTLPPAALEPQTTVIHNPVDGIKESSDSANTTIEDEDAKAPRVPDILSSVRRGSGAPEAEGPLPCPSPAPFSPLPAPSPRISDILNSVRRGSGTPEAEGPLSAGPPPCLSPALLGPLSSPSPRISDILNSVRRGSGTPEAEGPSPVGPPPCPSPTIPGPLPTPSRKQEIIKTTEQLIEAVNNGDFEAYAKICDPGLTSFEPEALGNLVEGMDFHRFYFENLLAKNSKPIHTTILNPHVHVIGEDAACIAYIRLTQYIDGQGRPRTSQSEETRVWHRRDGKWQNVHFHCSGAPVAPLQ
Chain of kinases (Homo sapiens, UniProt O00418) (O00418 whole entry): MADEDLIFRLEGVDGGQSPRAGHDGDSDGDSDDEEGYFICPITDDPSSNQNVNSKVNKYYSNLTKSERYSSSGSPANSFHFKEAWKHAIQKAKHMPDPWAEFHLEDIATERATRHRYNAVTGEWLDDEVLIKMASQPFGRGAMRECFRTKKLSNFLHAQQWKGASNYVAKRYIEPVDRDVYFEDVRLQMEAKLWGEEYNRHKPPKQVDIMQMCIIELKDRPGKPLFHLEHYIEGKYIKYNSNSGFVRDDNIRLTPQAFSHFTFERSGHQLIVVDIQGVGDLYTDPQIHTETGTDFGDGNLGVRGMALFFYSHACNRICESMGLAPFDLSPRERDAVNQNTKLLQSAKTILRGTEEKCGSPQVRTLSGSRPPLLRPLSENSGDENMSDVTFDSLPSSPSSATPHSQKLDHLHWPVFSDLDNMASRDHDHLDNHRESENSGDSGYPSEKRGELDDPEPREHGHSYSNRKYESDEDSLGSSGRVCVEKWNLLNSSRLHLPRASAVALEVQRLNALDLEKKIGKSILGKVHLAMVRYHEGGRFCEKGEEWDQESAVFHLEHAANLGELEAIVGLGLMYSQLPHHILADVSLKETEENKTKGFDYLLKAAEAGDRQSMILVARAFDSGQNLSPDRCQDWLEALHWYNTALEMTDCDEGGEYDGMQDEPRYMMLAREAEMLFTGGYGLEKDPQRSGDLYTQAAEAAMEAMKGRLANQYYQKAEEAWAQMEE
Chain of kinases (Homo sapiens, UniProt Q8IY84) (Q8IY84 whole entry): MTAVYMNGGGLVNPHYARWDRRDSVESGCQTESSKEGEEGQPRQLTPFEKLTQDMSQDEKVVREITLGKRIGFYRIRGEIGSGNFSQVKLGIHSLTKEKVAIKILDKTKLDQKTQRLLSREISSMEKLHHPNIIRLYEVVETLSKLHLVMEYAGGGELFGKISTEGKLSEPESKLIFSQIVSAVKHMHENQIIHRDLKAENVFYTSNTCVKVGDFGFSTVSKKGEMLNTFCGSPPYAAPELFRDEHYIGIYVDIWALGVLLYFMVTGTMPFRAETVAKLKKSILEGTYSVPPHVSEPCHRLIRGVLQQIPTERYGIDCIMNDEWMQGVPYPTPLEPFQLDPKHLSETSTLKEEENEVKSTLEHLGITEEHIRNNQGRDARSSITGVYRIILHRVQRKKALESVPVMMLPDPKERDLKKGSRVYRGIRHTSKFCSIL

With Cc1ccc(NC(=O)c2ccnc(N3CCOCC3)c2)cc1Nc1ccnc(N2CC(C)OC(C)C2)n1 (stereo not drawn) [compound 3] the “proliferation signature proteins (cell cycle network, mevalonate enzymes, nuclear transporters)” value (mature hCO; mature hCO proteomics) was “induced”, the “cell cycle programs regulated at the protein level” value (mature hCO) was “DNA replication, G1/S transition and G2/M transition” and the “Mean Inhib (%)” value (kinases [1]) was −0.9%. The “Mean Inhib (%)” value (kinases [2]) was 4.5%, the “Mean Inhib (%)” value (kinases [3]) was −5.6% and the “Mean Inhib (%)” value (kinases [4]) was 5.5%. The contractile force (mature hCOs) was “no impact”.
With Cc1cc(Oc2ccnc(Nc3ccc(S(N)(=O)=O)cc3)c2)c(-c2ccccn2)nc1C [compound 65] the “induction of the mevalonate pathway (cholesterol biosynthetic process enzymes)” value (mature hCO; mature hCO proteomics) was “most robust inducers”, the “proliferation signature proteins (cell cycle network, mevalonate enzymes, nuclear transporters)” value (mature hCO; mature hCO proteomics) was “induced” and the “cell cycle programs regulated at the protein level” value (mature hCO) was “DNA replication, G1/S transition and G2/M transition”. For the same compound, the “Mean Inhib (%)” value (kinases [1]) was −0.4%, the “Mean Inhib (%)” value (kinases [2]) was 11.4% and the “Mean Inhib (%)” value (kinases [3]) was −3.5%. For the same compound, the “Mean Inhib (%)” value (kinases [4]) was 3.7% and the contractile force (mature hCOs) was “no impact”.
